Laboratory results: ChEMBL document CHEMBL1201862, “PubChem BioAssay data set” (2004)
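Grown in 96-well plates, cells were treated for 48 hours with each compound at five concentrations. Insufficient inhibition: endpoint recorded as highest concentration tested. At the GI50, growth is halved.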 Activity calls are given as the source filed them. No stated cut-off is given here; in the data, active = GI50 up to about 1.1 µM and inactive = higher.

Assays:
Assay in all cases: inhibition of tumour cell growth, NCI panel, 48 h
TK-10 = tested on: TK-10
HOP-62 = tested on: HOP-62
U-251 = tested on: U-251
ACHN = tested on: ACHN
KM12 = tested on: KM12
DMS-273 = tested on: DMS-273
CCRF-CEM = tested on: CCRF-CEM
NCI-H460 = tested on: NCI-H460
SK-MEL-5 = tested on: SK-MEL-5
HCT-116 = tested on: HCT-116
RXF 393 = tested on: RXF 393
M19-MEL = tested on: M19-MEL
SR = tested on: SR
HT-29 = tested on: HT-29
SW-620 = tested on: SW-620
IGROV-1 = tested on: IGROV-1
DMS-114 = tested on: DMS-114
RPMI-8226 = tested on: RPMI-8226

Compound | GI50 (TK-10) | GI50 (HOP-62) | GI50 (U-251) | GI50 (ACHN) | GI50 (KM12) | GI50 (DMS-273) | GI50 (CCRF-CEM) | GI50 (NCI-H460) | GI50 (SK-MEL-5) | GI50 (HCT-116) | GI50 (RXF 393) | GI50 (M19-MEL) | GI50 (SR) | GI50 (HT-29) | GI50 (SW-620) | GI50 (IGROV-1) | GI50 (DMS-114) | GI50 (RPMI-8226)
N#Cc1c([N+](=O)[O-])cc(C(F)(F)F)cc1[N+](=O)[O-] | 13.7 µM (inactive) | 18.4 µM (inactive) | 18.8 µM (inactive) | 7.5 µM (inactive) | 5.25 µM (inactive) | 4.49 µM (inactive) | 1.09 µM (active) | 19.7 µM (inactive) | 15.3 µM (inactive) | 7.76 µM (inactive) | 2.44 µM (inactive) | 2.54 µM (inactive) | 2.16 µM (inactive) | 2.96 µM (inactive) | 3.26 µM (inactive) | 5.65 µM (inactive) | 1.88 µM (inactive) | 2.57 µM (inactive)
COC(=O)C(CC1=C(O)Nc2ccccc2N1)/C(=N/NC(N)=O)C(=O)Nc1ccccc1C (configuration not stated) | > 100 µM (inactive) | > 100 µM (inactive) | > 100 µM (inactive) | > 100 µM (inactive) | > 100 µM (inactive) | 17 µM (inactive) | 21.7 µM (inactive) | 28.8 µM (inactive) | 93.5 µM (inactive) | 18.2 µM (inactive) | 38.5 µM (inactive) | 60.1 µM (inactive) | 20.8 µM (inactive) | 66.5 µM (inactive) |  | > 100 µM (inactive) | 12.9 µM (inactive) | 21 µM (inactive)
ON1CCc2c([nH]c3ccccc23)C1c1ccc(Cl)cc1 (configuration not stated) | 43.9 µM (inactive) | 76.4 µM (inactive) | 15.2 µM (inactive) | 31 µM (inactive) | 27.5 µM (inactive) | 31.3 µM (inactive) | 18.2 µM (inactive) |  |  | 0.384 µM (active) | 22.1 µM (inactive) | 36.8 µM (inactive) | 20.3 µM (inactive) | 17 µM (inactive) | 33.2 µM (inactive) |  | 19.4 µM (inactive) | 29.6 µM (inactive)
O=c1c2ccc3cccc4c(=O)cc(c5ccccc15)-c2c34 | > 100 µM (inactive) | > 100 µM (inactive) | 45.4 µM (inactive) | > 100 µM (inactive) | > 100 µM (inactive) | > 100 µM (inactive) | > 100 µM (inactive) | > 100 µM (inactive) | 57.4 µM (inactive) | > 100 µM (inactive) | > 100 µM (inactive) | 20.3 µM (inactive) | > 100 µM (inactive) | > 100 µM (inactive) | > 100 µM (inactive) | > 100 µM (inactive) | 32 µM (inactive) | 
COc1cc(C)c2c(c1)CN1CN2Cc2cc(OC)cc(C)c21 |  | 65.6 µM (inactive) | 50.6 µM (inactive) | 37.8 µM (inactive) | 58.2 µM (inactive) | 38.2 µM (inactive) | 65.6 µM (inactive) | 64.6 µM (inactive) | 3.66 µM (inactive) | 47.9 µM (inactive) |  | 38.9 µM (inactive) | 36.1 µM (inactive) | 74.8 µM (inactive) | > 100 µM (inactive) | 97.1 µM (inactive) | 21.5 µM (inactive) | 43.8 µM (inactive)
COC(=O)C1C2CC3C(OC(=O)C31)C2OC(=O)[C@](OC)(c1ccccc1)C(F)(F)F (some centres not stated) | > 100 µM (inactive) | > 100 µM (inactive) | > 100 µM (inactive) | > 100 µM (inactive) | > 100 µM (inactive) | > 100 µM (inactive) | > 100 µM (inactive) | > 100 µM (inactive) | > 100 µM (inactive) | > 100 µM (inactive) | > 100 µM (inactive) | > 100 µM (inactive) | > 100 µM (inactive) | > 100 µM (inactive) | > 100 µM (inactive) | > 100 µM (inactive) | > 100 µM (inactive) | > 100 µM (inactive)
Cc1ccc(C)c(N2C/C(=N\NC(=O)CC#N)C(c3nc4ccccc4s3)C(=O)C2=O)c1 (configuration not stated) | > 100 µM (inactive) | > 100 µM (inactive) | > 100 µM (inactive) | > 100 µM (inactive) | > 100 µM (inactive) | > 100 µM (inactive) | > 100 µM (inactive) | > 100 µM (inactive) | > 100 µM (inactive) | > 100 µM (inactive) | > 100 µM (inactive) | > 100 µM (inactive) | > 100 µM (inactive) | > 100 µM (inactive) | > 100 µM (inactive) | > 100 µM (inactive) | > 100 µM (inactive) | 
COc1nc(NC2OC(COC(C)=O)C(OC(C)=O)C(OC(C)=O)C2OC(C)=O)c2c(OC(C)=O)cc(=O)oc2n1 (configuration not stated) | > 100 µM (inactive) | > 100 µM (inactive) | > 100 µM (inactive) | 12.5 µM (inactive) | > 100 µM (inactive) | > 100 µM (inactive) | > 100 µM (inactive) | 13.8 µM (inactive) | > 100 µM (inactive) | > 100 µM (inactive) | > 100 µM (inactive) | > 100 µM (inactive) |  | > 100 µM (inactive) | > 100 µM (inactive) | > 100 µM (inactive) | > 100 µM (inactive) | > 100 µM (inactive)
CN/C=C(\C(=O)c1ccc(OC)c(OC)c1)c1ccc(OC)cc1 | 17 µM (inactive) | 24.7 µM (inactive) | 9.29 µM (inactive) | 22 µM (inactive) | 12.6 µM (inactive) | 7.33 µM (inactive) | 3.85 µM (inactive) | 19.2 µM (inactive) | 17.4 µM (inactive) | 4.06 µM (inactive) | 14 µM (inactive) | 17.1 µM (inactive) | 16.3 µM (inactive) | 16.3 µM (inactive) | 17.3 µM (inactive) | 27.4 µM (inactive) | 18.6 µM (inactive) | 3.52 µM (inactive)
Cc1cccc(C)c1NC(=O)C1=NC(=S)NC(c2ccccc2)C1c1nc2ccccc2s1 (configuration not stated) | > 100 µM (inactive) |  | > 100 µM (inactive) | > 100 µM (inactive) | > 100 µM (inactive) | > 100 µM (inactive) | > 100 µM (inactive) | > 100 µM (inactive) | > 100 µM (inactive) | > 100 µM (inactive) | > 100 µM (inactive) | > 100 µM (inactive) | > 100 µM (inactive) | > 100 µM (inactive) | > 100 µM (inactive) | > 100 µM (inactive) | > 100 µM (inactive) | 
CCN(CC)CCCN1CCc2c([nH]c3ccccc23)C1c1cccnc1 (configuration not stated) | > 100 µM (inactive) | > 100 µM (inactive) | > 100 µM (inactive) | > 100 µM (inactive) | > 100 µM (inactive) | > 100 µM (inactive) | > 100 µM (inactive) | > 100 µM (inactive) | 59.8 µM (inactive) | > 100 µM (inactive) | > 100 µM (inactive) | > 100 µM (inactive) | > 100 µM (inactive) | > 100 µM (inactive) | > 100 µM (inactive) | > 100 µM (inactive) | > 100 µM (inactive) | > 100 µM (inactive)
O=c1c2c(-c3ccccc3)c3ccccc3nc2cnn1-c1ccccc1 | > 100 µM (inactive) | > 100 µM (inactive) | > 100 µM (inactive) | > 100 µM (inactive) | 90.6 µM (inactive) | > 100 µM (inactive) | 81.7 µM (inactive) | > 100 µM (inactive) | > 100 µM (inactive) | > 100 µM (inactive) | > 100 µM (inactive) | > 100 µM (inactive) | 33.2 µM (inactive) | 70.3 µM (inactive) | 91.4 µM (inactive) | > 100 µM (inactive) | 57.1 µM (inactive) | > 100 µM (inactive)
CC(=O)O[C@H]1[C@H](O[C@H]2CC[C@]34C[C@]35CC[C@]3(C)[C@@H]([C@@]6(C)CC[C@@H](C(C)(C)O)O6)[C@@H](O)C[C@@]3(C)[C@@H]5C[C@H](O[C@@H]3O[C@H](CO)[C@@H](O)[C@H](O)[C@H]3O)[C@H]4C2(C)C)OC[C@@H](O)[C@@H]1O | > 100 µM (inactive) | > 100 µM (inactive) | 55 µM (inactive) | > 100 µM (inactive) | > 100 µM (inactive) | 44.6 µM (inactive) | 31.6 µM (inactive) | 71 µM (inactive) | > 100 µM (inactive) | > 100 µM (inactive) | > 100 µM (inactive) | 78.5 µM (inactive) |  | 85.5 µM (inactive) | 25.4 µM (inactive) | > 100 µM (inactive) | 66.2 µM (inactive) | 52.6 µM (inactive)
